Experimental data as given in US20080274892A1, “Novel Haloalkylsulfonanilide Derivative, Herbicide, and Method of Use Thereof” (priority 2005, published 2008).

Assays:
[1] = test system: paddy rice plant (cultivar: Nihonbare); assay: Test Example 3: phytotoxicity test for transplanted paddy rice plant; type: in vivo; settings: 21 days after treatment; for Phytotoxicity to paddy rice: transplanted rice
Experimental: (§1) The standard of judgment for herbicidal efficacy (degree of growth inhibition) and phytotoxicity 4 . . . 90%-100% of herbicidal efficacy or phytotoxicity 3 . . . 70%-89% of herbicidal efficacy or phytotoxicity 2 . . . 40%-69% of herbicidal efficacy or phytotoxicity 1 . . . 1%-39% of herbicidal efficacy or phytotoxicity 0 . . . 0% of herbicidal efficacy or phytotoxicity
A 75 cm^2 plastic pot was filled with soil (clay loam), and water was added so that the soil was submerged under 5 cm depth of water. Two paddy rice plant (cultivar: Nihonbare) at two leaves stage were transplanted at the depth of 1 cm and kept in a hot house. […] The pot was kept in a hot house for 21 days after the treatment and the phytotoxicity was investigated and evaluated according to the standard in Test Example 1 by comparing with the untreated control. “-” in the table represents test not done.

bulrush [2] = assay: Test Example 1: herbicidal efficacy on rice paddy weeds pre-emergence; type: in vivo, Scirpus juncoides; settings: 21 days
Experimental: (§2) A 75 cm^2 plastic pot was filled with soil (clay loam) and planted seeds of bulrush which is a rice paddy weed. After covering the top with 75 cm^3 soil mixed with seeds of false pimpernel, the pot was filled with water so that the soil submerged under 5 cm depth of water. The predetermined effective dosage ([…]) of a formulation containing the compound of the present invention prepared according to Formulation Example 1-4 as an active ingredient was diluted in water and added to the pot water surface dropwise. The pot was kept in a hot house for 21 days and the herbicidal efficacy was investigated. The herbicidal efficacy was evaluated according to the following standard by comparing with untreated control. “-” in the table represents test not done.
as §1

bulrush [3] = assay: Test Example 2: herbicidal efficacy on rice paddy weeds post-emergence; type: in vivo, Scirpus juncoides; settings: 21 days after treatment
Text: as §1
(§3) A 75 cm^2 plastic pot was filled with soil (clay loam) and planted seeds of barnyard glass and bulrush which is a rice paddy weed. After covering the top with 75 cm^3 soil mixed with seeds of false pimpernel, the pot was filled with water so that the soil submerged under 5 cm depth of water and kept in a hot house. […] The pot was kept in a hot house for 21 days after the treatment and the herbicidal efficacy was investigated and evaluated according to the standard in Test Example 1 by comparing with the untreated control. “-” in the table represents test not done.

false pimpernel [4] = assay: as above; type: in vivo, Lindernia pyxidaria; settings: 21 days after treatment
Text: as §1, §3

false pimpernel [5] = assay: Test Example 1: herbicidal efficacy on rice paddy weeds pre-emergence; type: in vivo, Lindernia pyxidaria; settings: 21 days
Experimental: as §2, §1

[6] = dosage 1000 g/ha active ingredient, post-emergence treatment at one leaf stage, vs untreated control
[7] = dosage 300 g/ha, post-emergence, one leaf stage
[8] = dosage 1000 g/ha, treated 5 days after transplantation
[9] = dosage 1000 g/ha, post-emergence, one leaf stage

| Compound | Phytotoxicity to paddy rice ([1]; dosage 300 g/ha) | Bulrush pre (herbicidal efficacy grade) (bulrush [2]; dosage 300 g/ha) | Bulrush post (herbicidal efficacy grade) (bulrush [3]; [7]) | False pimpernel pre (herbicidal efficacy grade) (false pimpernel [5]; dosage 300 g/ha) | False pimpernel post (herbicidal efficacy grade) (false pimpernel [4]; [7]) | Phytotoxicity to paddy rice [1, 8] | Bulrush pre (herbicidal efficacy grade) (bulrush [2]; dosage 1000 g/ha) | Bulrush post (herbicidal efficacy grade) (bulrush [3]; [9]) | False pimpernel pre (herbicidal efficacy grade) (false pimpernel [5]; dosage 1000 g/ha) | False pimpernel post (herbicidal efficacy grade) (false pimpernel [4]; [9]) | also measured |
| --- | --- | --- | --- | --- | --- | --- | --- | --- | --- | --- | --- |
| COCOc1cccc(CN2CC(C)(C)OC2=O)c1N(C(=O)OCC(C)C)S(=O)(=O)C(F)(F)F [1-213] | – | – | – | – | – | – | – | – | – | – | Phytotoxicity to paddy rice (grade) ([1]; dosage 1000 g/ha active ingredient, treated 5 days after transplantation, vs untreated control): 1 (1%-39% of herbicidal efficacy or phytotoxicity); Bulrush pre (herbicidal efficacy grade) (bulrush [2]; dosage 1000 g/ha active ingredient, vs untreated control): 4 (90%-100% of herbicidal efficacy or phytotoxicity); Bulrush post (herbicidal efficacy grade) (bulrush [3]; [6]): 4 (90%-100% of herbicidal efficacy or phytotoxicity); False pimpernel post (herbicidal efficacy grade) (false pimpernel [4]; [6]): 2 (40%-69% of herbicidal efficacy or phytotoxicity) |
| CCc1cn(Cc2ccccc2NS(=O)(=O)C(F)(F)F)c(=O)o1 [Compound 1-209] | 1 (1%-39% of herbicidal efficacy or phytotoxicity) | 3 (70%-89% of herbicidal efficacy or phytotoxicity) | 3 (70%-89% of herbicidal efficacy or phytotoxicity) | 4 (90%-100% of herbicidal efficacy or phytotoxicity) | 2 (40%-69% of herbicidal efficacy or phytotoxicity) | – | – | – | – | – | – |
| CC1OC(=O)N(Cc2ccccc2NS(=O)(=O)C(F)(F)F)C1=O (centres unmarked) [Compound 1-190] | 0 (0% of herbicidal efficacy or phytotoxicity) | 4 (90%-100% of herbicidal efficacy or phytotoxicity) | 4 (90%-100% of herbicidal efficacy or phytotoxicity) | 4 (90%-100% of herbicidal efficacy or phytotoxicity) | 2 (40%-69% of herbicidal efficacy or phytotoxicity) | – | – | – | – | – | – |
| COC(=O)N(c1ccccc1CN1CC(C)(C=C(C)C)OC1=O)S(=O)(=O)C(F)(F)F (centres unmarked) [Compound 1-166] | – | – | – | – | – | 2 (40%-69% of herbicidal efficacy or phytotoxicity) | 4 (90%-100% of herbicidal efficacy or phytotoxicity) | 4 (90%-100% of herbicidal efficacy or phytotoxicity) | 4 (90%-100% of herbicidal efficacy or phytotoxicity) | 4 (90%-100% of herbicidal efficacy or phytotoxicity) | – |
| CC1(COCc2ccccc2)CN(Cc2ccccc2NS(=O)(=O)C(F)(F)F)C(=O)O1 (centres unmarked) [Compound 1-173] | – | – | – | – | – | 1 (1%-39% of herbicidal efficacy or phytotoxicity) | 4 (90%-100% of herbicidal efficacy or phytotoxicity) | 4 (90%-100% of herbicidal efficacy or phytotoxicity) | 4 (90%-100% of herbicidal efficacy or phytotoxicity) | 4 (90%-100% of herbicidal efficacy or phytotoxicity) | – |
| CC1(C)CN(Cc2ccccc2N(C(=O)OCc2ccccc2)S(=O)(=O)C(F)(F)F)C(=O)O1 [Compound 1-83] | 0 (0% of herbicidal efficacy or phytotoxicity) | 4 (90%-100% of herbicidal efficacy or phytotoxicity) | 4 (90%-100% of herbicidal efficacy or phytotoxicity) | 1 (1%-39% of herbicidal efficacy or phytotoxicity) | 1 (1%-39% of herbicidal efficacy or phytotoxicity) | – | – | – | – | – | – |
| CCOC1N(Cc2ccccc2NS(=O)(=O)C(F)(F)F)C(=O)OC1(C)C (centres unmarked) [Compound 1-198] | 2 (40%-69% of herbicidal efficacy or phytotoxicity) | 4 (90%-100% of herbicidal efficacy or phytotoxicity) | – | – | – | – | – | – | – | – | – |
| CC(C)COC(=O)N(c1ccccc1CN1CC(C)(C2CCCCC2)OC1=O)S(=O)(=O)C(F)(F)F (centres unmarked) [Compound 1-156] | 1 (1%-39% of herbicidal efficacy or phytotoxicity) | 4 (90%-100% of herbicidal efficacy or phytotoxicity) | 4 (90%-100% of herbicidal efficacy or phytotoxicity) | 4 (90%-100% of herbicidal efficacy or phytotoxicity) | 4 (90%-100% of herbicidal efficacy or phytotoxicity) | – | – | – | – | – | – |
| O=C1OC2(CC2)CN1Cc1ccccc1NS(=O)(=O)C(F)(F)F [Compound 1-88] | 1 (1%-39% of herbicidal efficacy or phytotoxicity) | 4 (90%-100% of herbicidal efficacy or phytotoxicity) | 4 (90%-100% of herbicidal efficacy or phytotoxicity) | 4 (90%-100% of herbicidal efficacy or phytotoxicity) | 4 (90%-100% of herbicidal efficacy or phytotoxicity) | – | – | – | – | – | – |
| CC1(C)OC1C1(C)CN(Cc2ccccc2NS(=O)(=O)C(F)(F)F)C(=O)O1 (centres unmarked) [Compound 1-176] | – | – | – | – | – | 1 (1%-39% of herbicidal efficacy or phytotoxicity) | 4 (90%-100% of herbicidal efficacy or phytotoxicity) | 4 (90%-100% of herbicidal efficacy or phytotoxicity) | 4 (90%-100% of herbicidal efficacy or phytotoxicity) | 4 (90%-100% of herbicidal efficacy or phytotoxicity) | – |
| COCC1CN(Cc2ccccc2NS(=O)(=O)C(F)(F)F)C(=O)O1 (centres unmarked) [Compound 1-35] | – | – | – | – | – | 1 (1%-39% of herbicidal efficacy or phytotoxicity) | 4 (90%-100% of herbicidal efficacy or phytotoxicity) | 4 (90%-100% of herbicidal efficacy or phytotoxicity) | 4 (90%-100% of herbicidal efficacy or phytotoxicity) | 4 (90%-100% of herbicidal efficacy or phytotoxicity) | – |
| CC(C)COC(=O)N(c1ccccc1CN1C(=O)OC(C)C1=O)S(=O)(=O)C(F)(F)F (centres unmarked) [Compound 1-191] | 0 (0% of herbicidal efficacy or phytotoxicity) | 4 (90%-100% of herbicidal efficacy or phytotoxicity) | 4 (90%-100% of herbicidal efficacy or phytotoxicity) | 4 (90%-100% of herbicidal efficacy or phytotoxicity) | 2 (40%-69% of herbicidal efficacy or phytotoxicity) | – | – | – | – | – | – |
| CCC1OC(=O)N(Cc2ccccc2N(C(=O)OCC(C)C)S(=O)(=O)C(F)(F)F)C1=O (centres unmarked) [Compound 1-193] | 0 (0% of herbicidal efficacy or phytotoxicity) | 4 (90%-100% of herbicidal efficacy or phytotoxicity) | 4 (90%-100% of herbicidal efficacy or phytotoxicity) | 4 (90%-100% of herbicidal efficacy or phytotoxicity) | 1 (1%-39% of herbicidal efficacy or phytotoxicity) | – | – | – | – | – | – |
| CCc1cn(Cc2ccccc2N(C(=O)OCC(C)C)S(=O)(=O)C(F)(F)F)c(=O)o1 [Compound 1-210] | 0 (0% of herbicidal efficacy or phytotoxicity) | 3 (70%-89% of herbicidal efficacy or phytotoxicity) | 4 (90%-100% of herbicidal efficacy or phytotoxicity) | 4 (90%-100% of herbicidal efficacy or phytotoxicity) | 0 (0% of herbicidal efficacy or phytotoxicity) | – | – | – | – | – | – |
| CC(C)=CC1(C)CN(Cc2ccccc2N(C(=O)OCC(C)C)S(=O)(=O)C(F)(F)F)C(=O)O1 (centres unmarked) [Compound 1-165] | – | – | – | – | – | 1 (1%-39% of herbicidal efficacy or phytotoxicity) | 4 (90%-100% of herbicidal efficacy or phytotoxicity) | 4 (90%-100% of herbicidal efficacy or phytotoxicity) | 4 (90%-100% of herbicidal efficacy or phytotoxicity) | 4 (90%-100% of herbicidal efficacy or phytotoxicity) | – |
